Experimental data as given in patent US20250113826A1, “AN AGROCHEMICAL COMBINATION” (UPL LIMITED, priority 2021, published 2025).

Key:
Type in all cases: in vivo
[1] = tested on: Spermacoce latifolia; experiment: Greenhouse post-emergence herbicidal efficacy on Spermacoce latifolia; conditions: L-glufosinate 150, imazethapyr 75, carfentrazone 7.5 g a.i./h
Description: (§1) Evaluation of Post-Emergence Herbicidal Activity of Combinations Under Field Conditions
(§2) Methodology: Greenhouse trials were carried out to evaluate the efficacy of the combination of L-glufosinate and the other herbicides on weeds such as Glycine max, Spermacoce verticilata, Eleusine indica, Brachiaria decumbens. The soil used was sandy clay loam—Sand: 68.0%; Silt: 8.0%; Clay: 24.0%. All treatments were conducted in 4 replications per treatment with a spray volume of […].
(§3) The expected efficacy of a combination of L-glufosinate and the other herbicides was calculated using the well-established Colby method. Any difference between the observed and “expected” efficacy could be attributed to synergy between the two compounds.
(§4) In the Colby method, the expected (or predicted) response of a combination of herbicides is calculated by taking the product of the observed response for each individual component of the combination when applied alone, divided by 100, and subtracting this value from the sum of the observed response for each component when applied alone. An unexpected enhancement in efficacy of the combination is then determined by comparing the observed response of the combination to the expected (or predicted) response as calculated from the observed response of each individual component alone. If the observed response of the combination is greater than the expected (or predicted) response, or stated conversely, if the difference between the observed and expected response is greater than zero, then the combination is said to be synergistic or unexpectedly effective (Colby, S. R., Weeds, 1967(15), p. 20-22). The Colby method requires only a single dose of each herbicide applied alone and the mixture of both doses. The formula used to calculate the expected efficacy (EE) which was compared with the observed efficacy (OE) to determine the efficacy of the present invention is explained hereinbelow:
(§5) The expected efficacy for a combination of two active ingredients is as follows:
(§6) The expected efficacy for a combination of three active ingredients is as follows:
(§7) Where, • A=Observed efficacy of active ingredient A at the same concentration as used in the mixture. • B=Observed efficacy of the active ingredient B at the same concentration as used in the mixture. • C=Observed efficacy of the active ingredient C at the same concentration as used in the mixture.

[2] = tested on: weedy Glycine max; experiment: Greenhouse post-emergence herbicidal efficacy on weedy Glycine max
Description: as §1, §2, §3, §4, §5, §6, §7

[3] = tested on: Borreria verticillata; experiment: Greenhouse post-emergence herbicidal efficacy on Borreria verticillata; conditions: L-glufosinate 150, imazapic and imazapyr 31.5 + 10.5 g a.i./h
Description: as §1, §2, §3, §4, §5, §6, §7

[4] = tested on: Amaranthus viridus; experiment: Greenhouse post-emergence herbicidal efficacy on Amaranthus viridus; conditions: Table 11, 3 DAA, L-glufosinate 150, imazapic and imazapyr 31.5 + 10.5 g a.i./h
Description: as §1, §2, §3
In the Colby method, the expected (or predicted) response of a combination of herbicides is calculated by taking the product of the observed response for each individual component of the combination when applied alone, divided by 100, and subtracting this value from the sum of the observed response for each component when applied alone. An unexpected enhancement in efficacy of the combination is then determined by comparing the observed response of the combination to the expected (or predicted) response as calculated from the observed response of each individual component alone. […]

[5] = tested on: Eleusine indica; experiment: Greenhouse post-emergence herbicidal efficacy on Eleusine indica
Description: as §1, §2, §3, §4, §5, §6, §7

[6] = tested on: Brachiaria decumbens; experiment: Greenhouse post-emergence herbicidal efficacy on Brachiaria decumbens
Description: as §1, §2, §3, §4, §5, §6, §7

[7] = Table 3, 14 DAA, L-glufosinate 150, imazethapyr 75, carfentrazone 7.5 g a.i./h
[8] = Table 3, 21 DAA, L-glufosinate 150, imazethapyr 75, carfentrazone 7.5 g a.i./h
[9] = Table 3, 28 DAA, L-glufosinate 150, imazethapyr 75, carfentrazone 7.5 g a.i./h
[10] = Table 3, 35 DAA, L-glufosinate 150, imazethapyr 75, carfentrazone 7.5 g a.i./h
[11] = Table 7, 7 DAA, L-glufosinate 150, saflufenacil 30, triclopyr 228 g a.i./h
[12] = Table 9, 21 DAA, L-glufosinate 150, saflufenacil 30, 2,4 D 228 g a.i./h
[13] = Table 9, 28 DAA, L-glufosinate 150, saflufenacil 30, 2,4 D 228 g a.i./h
[14] = Table 9, 35 DAA, L-glufosinate 150, saflufenacil 30, 2,4 D 228 g a.i./h
[15] = Table 4, 3 DAA, L-glufosinate 150, imazethapyr 75, carfentrazone 7.5 g a.i./h
[16] = Table 4, 7 DAA, L-glufosinate 150, imazethapyr 75, carfentrazone 7.5 g a.i./h
[17] = Table 4, 14 DAA, L-glufosinate 150, imazethapyr 75, carfentrazone 7.5 g a.i./h
[18] = Table 4, 21 DAA, L-glufosinate 150, imazethapyr 75, carfentrazone 7.5 g a.i./h
[19] = Table 4, 28 DAA, L-glufosinate 150, imazethapyr 75, carfentrazone 7.5 g a.i./h
[20] = Table 4, 35 DAA, L-glufosinate 150, imazethapyr 75, carfentrazone 7.5 g a.i./h
[21] = Table 6, 7 DAA, L-glufosinate 150, imazethapyr 75, carfentrazone 7.5 g a.i./h
[22] = Table 6, 14 DAA, L-glufosinate 150, imazethapyr 75, carfentrazone 7.5 g a.i./h
[23] = Table 6, 21 DAA, L-glufosinate 150, imazethapyr 75, carfentrazone 7.5 g a.i./h
[24] = Table 6, 28 DAA, L-glufosinate 150, imazethapyr 75, carfentrazone 7.5 g a.i./h
[25] = Table 6, 35 DAA, L-glufosinate 150, imazethapyr 75, carfentrazone 7.5 g a.i./h
[26] = Table 8, 7 DAA (head; title says 3 days), L-glufosinate 150, saflufenacil 30, triclopyr 228 g a.i./h

Structure (SMILES) | Control % ([1]; Table 5, 7 DAA) [%] | Control % ([1]; Table 5, 14 DAA) [%] | Control % ([1]; Table 5, 21 DAA) [%] | Control % ([1]; Table 5, 28 DAA) [%] | Control % ([1]; Table 5, 35 DAA) [%] | Control % [2, 7] [%] | Control % [2, 8] [%] | Control % [2, 9] [%] | Control % [2, 10] [%] | Control % [2, 11] [%] | Control % [2, 12] [%] | Control % [2, 13] [%] | Control % [2, 14] [%] | Control % [5, 15] [%] | Control % [5, 16] [%] | Control % [5, 17] [%] | Control % [5, 18] [%] | Control % [5, 19] [%] | Control % [5, 20] [%] | Control % [6, 21] [%] | further results
CP(=O)(O)CC[C@H](N)C(=O)O [L-glufosinate, (S)-2-amino-4-(hydroxy(methyl)phosphonyl)butanoic acid] | 35 | 56.7 | 56.7 | 58.3 | 58.3 | 60 | 63.3 | 63.3 | 52.7 | 71.9 | 57.5 | 50.6 | 47.5 | 15 | 43.3 | 41.3 | 37.3 | 28.3 | 25.3 | 46 | Control % ([3]; Table 10, 3 DAA): 50%; Control % ([3]; Table 10, 7 DAA): 80%; Control % ([3]; Table 10, 14 DAA): 95%; Control % ([3]; Table 10, 21 DAA): 90%; Control % ([3]; Table 10, 28 DAA): 90%; Control % ([3]; Table 10, 35 DAA): 85%; Control % [4]: 50%; Control % ([5]; Table 12, 3 DAA, L-glufosinate 150, imazapic and imazapyr 31.5 + 10.5 g a.i./h): 40%; Control % ([5]; Table 12, 7 DAA, L-glufosinate 150, imazapic and imazapyr 31.5 + 10.5 g a.i./h): 50%; Control % ([5]; Table 12, 14 DAA, L-glufosinate 150, imazapic and imazapyr 31.5 + 10.5 g a.i./h): 40%; Control % [6, 22]: 54.3%; Control % [6, 23]: 53.3%; Control % [6, 24]: 48.3%; Control % [6, 25]: 42%; Control % [6, 26]: 66.2%
CCc1cnc(C2=NC(C)(C(C)C)C(=O)N2)c(C(=O)O)c1 (stereo not shown) [Imazethapyr, imazethapyr] | 13.3 | 30 | 36.7 | 30 | 26.7 | 10 | 20.0 | 20.0 | 15.0 |  |  |  |  | 3.7 | 8.3 | 12 | 12.7 | 12.7 | 10 | 10 | Control % [6, 22]: 10%; Control % [6, 23]: 15%; Control % [6, 24]: 10%; Control % [6, 25]: 5%
O=C(O)COc1nc(Cl)c(Cl)cc1Cl [Triclopyr, triclopyr] |  |  |  |  |  |  |  |  |  | 67.9 |  |  |  |  |  |  |  |  |  |  | Control % [6, 26]: 0%
O=C(O)COc1ccc(Cl)cc1Cl [2,4 D, 2,4-D] |  |  |  |  |  |  |  |  |  |  | 49.3 | 43.8 | 41 |  |  |  |  |  |  |  | 
Cc1nn(-c2cc(CC(Cl)C(=O)O)c(Cl)cc2F)c(=O)n1C(F)F (stereo not shown) [Carfentrazone, carfentrazone] | 58.3 | 64.3 | 64.3 | 64.3 | 63.3 | 50.3 | 44.3 | 44.3 | 39.3 |  |  |  |  | 8.7 | 14 | 12.3 | 11 | 7.7 | 0 | 14 | Control % [6, 22]: 16.7%; Control % [6, 23]: 15%; Control % [6, 24]: 5%; Control % [6, 25]: 0%
CC(C)N(C)S(=O)(=O)NC(=O)c1cc(-n2c(=O)cc(C(F)(F)F)n(C)c2=O)c(F)cc1Cl [Saflufenacil, saflufenacil] |  |  |  |  |  |  |  |  |  | 75.4 | 63.2 | 52.5 | 50.7 |  |  |  |  |  |  |  | Control % [6, 26]: 30%
